Blank lines part the entries; values can stand above or below the compound they belong to. Activity calls are given as the source filed them. No cut-off for these calls is given here.
Columns and labels:
[1] = target: T1, Poly [ADP-ribose] polymerase 1 (Homo sapiens, UniProt P09874); experiment: Inhibition of PARP1 (unknown origin) using histone as substrate incubated for 45 mins by absorbance based analysis
[2] = target: T2, Hepatocyte growth factor receptor (Homo sapiens, UniProt P08581); experiment: Inhibition of c-Met (unknown origin) by HTRF method
T2 sequence (P08581 whole entry): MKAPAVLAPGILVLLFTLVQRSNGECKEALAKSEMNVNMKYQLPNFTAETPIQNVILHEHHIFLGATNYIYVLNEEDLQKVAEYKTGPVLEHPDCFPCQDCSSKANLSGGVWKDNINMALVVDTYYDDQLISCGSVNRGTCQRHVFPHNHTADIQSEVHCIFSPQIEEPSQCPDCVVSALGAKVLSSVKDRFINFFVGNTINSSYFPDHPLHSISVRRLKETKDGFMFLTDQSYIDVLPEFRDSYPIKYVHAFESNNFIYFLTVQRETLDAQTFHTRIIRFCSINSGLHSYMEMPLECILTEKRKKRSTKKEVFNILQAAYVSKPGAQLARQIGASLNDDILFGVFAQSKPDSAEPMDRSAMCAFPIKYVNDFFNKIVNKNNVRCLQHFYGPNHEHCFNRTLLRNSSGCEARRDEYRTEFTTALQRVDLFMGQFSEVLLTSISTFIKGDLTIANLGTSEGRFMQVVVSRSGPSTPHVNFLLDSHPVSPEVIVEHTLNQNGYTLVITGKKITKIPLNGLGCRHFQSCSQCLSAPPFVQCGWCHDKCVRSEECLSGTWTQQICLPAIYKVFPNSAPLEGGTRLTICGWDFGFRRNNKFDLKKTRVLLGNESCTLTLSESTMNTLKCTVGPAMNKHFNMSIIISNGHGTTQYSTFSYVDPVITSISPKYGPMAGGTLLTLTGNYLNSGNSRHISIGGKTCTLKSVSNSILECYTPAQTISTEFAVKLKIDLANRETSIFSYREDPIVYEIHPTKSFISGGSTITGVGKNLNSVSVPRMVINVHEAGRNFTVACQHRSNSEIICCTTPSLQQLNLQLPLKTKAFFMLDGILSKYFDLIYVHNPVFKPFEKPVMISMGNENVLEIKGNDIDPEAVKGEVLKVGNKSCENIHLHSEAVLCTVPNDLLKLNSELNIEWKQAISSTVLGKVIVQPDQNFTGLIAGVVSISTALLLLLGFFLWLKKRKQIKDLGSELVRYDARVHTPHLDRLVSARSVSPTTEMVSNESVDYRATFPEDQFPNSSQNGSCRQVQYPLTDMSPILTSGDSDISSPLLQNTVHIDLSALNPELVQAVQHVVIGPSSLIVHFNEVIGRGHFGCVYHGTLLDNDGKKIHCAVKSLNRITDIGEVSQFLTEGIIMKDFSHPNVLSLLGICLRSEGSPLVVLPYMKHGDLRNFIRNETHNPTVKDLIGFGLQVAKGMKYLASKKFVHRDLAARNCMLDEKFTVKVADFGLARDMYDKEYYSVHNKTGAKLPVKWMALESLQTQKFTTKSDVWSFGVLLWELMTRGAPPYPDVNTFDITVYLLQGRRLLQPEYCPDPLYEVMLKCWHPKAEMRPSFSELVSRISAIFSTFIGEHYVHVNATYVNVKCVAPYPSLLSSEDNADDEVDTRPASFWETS

[3] = target: T2, Hepatocyte growth factor receptor; experiment: Inhibition of c-Met (unknown origin) at 100 nM by HTRF method relative to control
[4] = target: T2, Hepatocyte growth factor receptor; experiment: Inhibition of c-Met (unknown origin) at 1 uM relative to control
[5] = target: Proto-oncogene tyrosine-protein kinase ROS (Homo sapiens) (UniProt P08922); experiment: Inhibition of ROS1 (unknown origin) at 1 uM relative to control
Chain of Proto-oncogene tyrosine-protein kinase ROS (Homo sapiens) (P08922 whole entry): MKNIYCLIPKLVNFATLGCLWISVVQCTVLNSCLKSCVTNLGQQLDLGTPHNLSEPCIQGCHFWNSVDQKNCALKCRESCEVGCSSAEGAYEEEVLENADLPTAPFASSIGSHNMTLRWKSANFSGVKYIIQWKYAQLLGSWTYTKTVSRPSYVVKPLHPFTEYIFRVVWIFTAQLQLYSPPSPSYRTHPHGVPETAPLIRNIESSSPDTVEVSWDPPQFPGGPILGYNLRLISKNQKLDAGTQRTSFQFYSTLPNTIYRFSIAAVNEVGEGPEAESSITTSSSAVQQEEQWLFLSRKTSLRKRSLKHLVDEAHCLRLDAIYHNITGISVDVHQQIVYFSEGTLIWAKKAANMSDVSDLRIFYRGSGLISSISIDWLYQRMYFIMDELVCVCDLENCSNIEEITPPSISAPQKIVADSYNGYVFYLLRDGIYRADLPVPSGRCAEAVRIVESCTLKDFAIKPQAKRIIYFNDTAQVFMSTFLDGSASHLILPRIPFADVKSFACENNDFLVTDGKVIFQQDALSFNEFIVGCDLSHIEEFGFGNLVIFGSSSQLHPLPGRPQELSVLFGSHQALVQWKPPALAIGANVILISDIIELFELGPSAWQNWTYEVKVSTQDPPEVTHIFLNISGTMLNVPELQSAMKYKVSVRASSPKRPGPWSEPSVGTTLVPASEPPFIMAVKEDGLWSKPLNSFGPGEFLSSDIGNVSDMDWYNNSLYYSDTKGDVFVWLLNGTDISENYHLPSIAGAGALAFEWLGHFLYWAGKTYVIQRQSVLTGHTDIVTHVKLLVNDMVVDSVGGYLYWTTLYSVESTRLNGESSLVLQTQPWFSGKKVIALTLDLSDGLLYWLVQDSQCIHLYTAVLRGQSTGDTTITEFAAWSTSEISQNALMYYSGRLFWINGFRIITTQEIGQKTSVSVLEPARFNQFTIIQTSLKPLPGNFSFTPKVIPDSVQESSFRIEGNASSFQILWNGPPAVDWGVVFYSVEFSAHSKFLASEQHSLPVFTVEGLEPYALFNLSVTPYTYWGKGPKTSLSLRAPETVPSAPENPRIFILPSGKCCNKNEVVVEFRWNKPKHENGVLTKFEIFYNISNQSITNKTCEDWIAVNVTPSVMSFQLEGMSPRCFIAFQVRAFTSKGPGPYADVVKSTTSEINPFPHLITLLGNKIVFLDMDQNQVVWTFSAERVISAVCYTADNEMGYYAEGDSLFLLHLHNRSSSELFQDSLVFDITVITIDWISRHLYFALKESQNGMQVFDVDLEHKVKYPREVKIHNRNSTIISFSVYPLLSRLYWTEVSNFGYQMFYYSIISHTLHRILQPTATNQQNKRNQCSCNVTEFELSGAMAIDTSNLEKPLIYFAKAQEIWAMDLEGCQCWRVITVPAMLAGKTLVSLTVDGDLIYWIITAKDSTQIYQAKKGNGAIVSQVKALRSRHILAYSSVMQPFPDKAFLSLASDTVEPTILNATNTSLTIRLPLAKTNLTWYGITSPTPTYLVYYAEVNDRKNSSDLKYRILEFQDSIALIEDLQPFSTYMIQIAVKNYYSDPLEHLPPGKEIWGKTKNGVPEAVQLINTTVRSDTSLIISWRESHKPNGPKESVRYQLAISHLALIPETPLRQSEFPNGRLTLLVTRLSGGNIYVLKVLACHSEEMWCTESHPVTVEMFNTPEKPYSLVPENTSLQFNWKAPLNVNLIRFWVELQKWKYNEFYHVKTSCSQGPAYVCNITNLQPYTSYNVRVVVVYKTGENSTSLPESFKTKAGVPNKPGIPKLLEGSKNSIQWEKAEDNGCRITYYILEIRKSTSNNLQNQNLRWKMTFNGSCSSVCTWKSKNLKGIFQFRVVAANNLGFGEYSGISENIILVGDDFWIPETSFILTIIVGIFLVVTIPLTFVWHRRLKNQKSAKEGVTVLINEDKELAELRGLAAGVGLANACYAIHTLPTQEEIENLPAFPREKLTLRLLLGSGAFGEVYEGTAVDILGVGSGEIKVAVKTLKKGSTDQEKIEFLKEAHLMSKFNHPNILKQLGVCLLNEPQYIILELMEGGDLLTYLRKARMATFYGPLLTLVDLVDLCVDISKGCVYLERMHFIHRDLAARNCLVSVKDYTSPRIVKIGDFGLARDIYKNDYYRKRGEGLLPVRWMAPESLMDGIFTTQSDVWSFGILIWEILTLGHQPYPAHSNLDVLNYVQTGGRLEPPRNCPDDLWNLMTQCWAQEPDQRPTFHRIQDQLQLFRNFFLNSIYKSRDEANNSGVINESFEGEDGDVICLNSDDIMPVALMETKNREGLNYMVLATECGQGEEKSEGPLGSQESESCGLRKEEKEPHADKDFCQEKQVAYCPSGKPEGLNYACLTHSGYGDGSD

[6] = target: ALK tyrosine kinase receptor (Homo sapiens) (UniProt Q9UM73); experiment: Inhibition of ALK (unknown origin) at 1 uM relative to control
[7] = target: T1, Poly [ADP-ribose] polymerase 1; experiment: Binding affinity to PARP1 in human MDA-MB-231 cells assessed as thermal stabilization at 1 uM at 43 to 55 degreeC incubated for 12 hrs by CETSA; format: cell-based
[8] = target: T2, Hepatocyte growth factor receptor; experiment: Binding affinity to c-Met in human MDA-MB-231 cells assessed as thermal stabilization at 1 uM at 43 to 55 degreeC incubated for 12 hrs by CETSA; format: cell-based
MDA-MB-231 [9] = experiment: Effect on PARP1 protein expression in human MDA-MB-231 cells with H2O2-induced oxidative stress at 0.5 uM incubated for 72 hrs by Western blot analysis; format: functional, cell-based
MDA-MB-231 [10] = experiment: Effect on c-MET protein expression in human MDA-MB-231 cells with H2O2-induced oxidative stress at 0.5 uM incubated for 72 hrs by Western blot analysis; format: functional, cell-based
MDA-MB-231 [11] = experiment: Effect on PARP1 […] in human MDA-MB-231 cells with H2O2-induced oxidative stress at 0.5 uM by RT-qPCR analysis; format: functional, cell-based
MDA-MB-231 [12] = experiment: Effect on c-MET […] in human MDA-MB-231 cells with H2O2-induced oxidative stress at 0.5 uM by RT-qPCR analysis; format: functional, cell-based
MDA-MB-231 [13] = experiment: Downregulation of PAR protein level in human MDA-MB-231 cells with H2O2-induced oxidative stress at 0.5 uM incubated for 72 hrs by Western blot analysis; format: functional, cell-based
MDA-MB-231 [14] = experiment: Downregulation of PAR mRNA level in human MDA-MB-231 cells with H2O2-induced oxidative stress at 0.5 uM by RT-qPCR analysis; format: functional, cell-based
MDA-MB-231 [15] = experiment: Downregulation of phosphorylated c-MET protein level in human MDA-MB-231 cells with H2O2-induced oxidative stress at 0.5 uM incubated for 72 hrs by Western blot analysis; format: functional, cell-based
MDA-MB-231 [16] = experiment: Downregulation of phosphorylated c-MET mRNA level in human MDA-MB-231 cells with H2O2-induced oxidative stress at 0.5 uM by RT-qPCR analysis; format: functional, cell-based
MDA-MB-231 [17] = experiment: Downregulation of phosphorylated AKT level in human MDA-MB-231 cells with H2O2-induced oxidative stress at 0.5 uM incubated for 72 hrs by Western blot analysis; format: functional, cell-based
MDA-MB-231 [18] = experiment: Downregulation of phosphorylated AKT level in human MDA-MB-231 cells with H2O2-induced oxidative stress at 0.5 uM […]; format: functional, cell-based
MDA-MB-231 [19] = experiment: Induction of DNA damage in human MDA-MB-231 cells assessed as increase in gammaH2AX protein level at 0.5 uM incubated for 72 hrs by Western blot analysis; format: functional, cell-based
MDA-MB-231 [20] = experiment: Induction of DNA damage in human MDA-MB-231 cells assessed as increase in gammaH2AX […] analysis; format: functional, cell-based
MDA-MB-231 [21] = experiment: Induction of DNA damage in human MDA-MB-231 cells assessed as increase in tail DNA at 0.5 uM incubated for 72 hrs by comet assay; format: functional, cell-based
MDA-MB-231 [22] = experiment: Induction of DNA damage in human MDA-MB-231 cells assessed as increase in gammaH2AX expression at 0.5 to 1 uM incubated for 3 days by immunofluorescence based laser confocal microscopic analysis; format: functional, cell-based; settings: dose 0.5-1 µM, time 3.0 day
MDA-MB-231 [23] = experiment: Inhibition of PARP1/c-Met protein-protein interaction in H2O2 stimulated human MDA-MB-231 cells at 0.5 uM incubated for 72 hrs by proximity ligation assay; format: cell-based
MDA-MB-231 [24] = experiment: Effect on homologous recombination in human MDA-MB-231 cells assessed as reduction in BRCA1 protein level by measuring disruption of BRCA1-BRCA2-Rad51 complex formation at 0.5 uM incubated for 72 hrs by Western blot analysis; format: functional, cell-based
MDA-MB-231 [25] = experiment: Effect on homologous recombination in human MDA-MB-231 cells assessed as reduction in BRCA1 mRNA level by measuring disruption of BRCA1-BRCA2-Rad51 complex formation at 0.5 uM by RT-qPCR analysis; format: functional, cell-based
MDA-MB-231 [26] = experiment: Effect on homologous recombination in human MDA-MB-231 cells assessed as reduction in Rad51 protein level by measuring disruption of BRCA1-BRCA2-Rad51 complex formation at 0.5 uM incubated for 72 hrs by Western blot analysis; format: functional, cell-based
MDA-MB-231 [27] = experiment: Effect on homologous recombination in human MDA-MB-231 cells assessed as reduction in Rad51 mRNA level by measuring disruption of BRCA1-BRCA2-Rad51 complex formation at 0.5 uM by RT-qPCR analysis; format: functional, cell-based
MDA-MB-231 [28] = experiment: Effect on BRCA2 protein level in human MDA-MB-231 cells at 0.5 uM incubated for 72 hrs by Western blot analysis; format: functional, cell-based
MDA-MB-231 [29] = experiment: Effect on BRCA2 mRNA level in human MDA-MB-231 cells at 0.5 uM by RT-qPCR analysis; format: functional, cell-based
MDA-MB-231 [30] = experiment: Effect on homologous recombination in human MDA-MB-231 cells assessed as reduction in Rad51 nuclear level at 0.5 to 1 uM incubated for 72 hrs by immunofluorescence analysis; format: functional, cell-based; settings: dose 0.5-1 µM
MDA-MB-231 [31] = experiment: Effect on homologous recombination in human MDA-MB-231 cells assessed as reduction in BRCA2-Rad51 complex formation at 0.5 uM incubated for 72 hrs by proximity ligation assay; format: functional, cell-based
MDA-MB-231 [32] = experiment: Antiproliferative activity against human MDA-MB-231 cells assessed as inhibition of cell growth assessed as reduction in colony formation at 0.5 to 1 uM incubated for 14 days by crystal violet staining based microscopic analysis; format: functional; settings: dose 0.5-1 µM, time 14.0 day
MDA-MB-231 [33] = experiment: Induction of G2/M phase cell cycle arrest in human MDA-MB-231 cells at 0.5 to 1 uM incubated for 4 days by PI staining based flow cytometry analysis; format: functional; settings: dose 0.5-1 µM, time 4.0 day
MDA-MB-231 [34] = experiment: Antitumor activity against human MDA-MB-231 cells xenografted in female Balb/c nude mouse assessed as reduction in tumor weight at 12.5 to 50 mg/kg/day, ip qd administered for 28 days; format: functional, organism-based; settings: dose 12.5-50 mg/kg/day, time 28.0 day
[35] = system: Olaparib-resistant HCT116; experiment: Antitumor activity against human Olaparib-resistant HCT116 cells xenografted in female Balb/c nude mouse assessed as reduction in tumor weight at 5 mg/kg/day, iv qd administered for 21 days; format: functional, organism-based; settings: time 21.0 day
[36] = system: Olaparib-resistant HCT116; experiment: Antitumor activity against human Olaparib-resistant HCT116 cells xenografted in female Balb/c nude mouse assessed as reduction in tumor weight at 25 to 100 mg/kg/day, ip qd administered for 21 days; format: functional, organism-based; settings: dose 25-100 mg/kg/day, time 21.0 day
MDA-MB-231 [37] = experiment: Antitumor activity against human MDA-MB-231 cells xenografted in female Balb/c nude mouse assessed as reduction in BRCA1 expression in tumor at 50 mg/kg/day, ip qd administered for 28 days by immunohistochemistry analysis; format: functional, organism-based; settings: time 28.0 day
MDA-MB-231 [38] = experiment: Antitumor activity against human MDA-MB-231 cells xenografted in female Balb/c nude mouse assessed as reduction in Ki67 expression in tumor at 50 mg/kg/day, ip qd administered for 28 days by immunohistochemistry analysis; format: functional, organism-based; settings: time 28.0 day
MDA-MB-231 [39] = experiment: Antitumor activity against human MDA-MB-231 cells xenografted in female Balb/c nude mouse assessed as induction of DNA damage by measuring increase in gammaH2AX expression in tumor at 50 mg/kg/day, ip qd administered for 28 days by immunohistochemistry analysis; format: functional, organism-based; settings: time 28.0 day
MDA-MB-231 [40] = experiment: Antitumor activity against human MDA-MB-231 cells xenografted in female Balb/c nude mouse assessed as induction of apoptosis by measuring upregulation of cleaved caspase-3 expression in tumor at 50 mg/kg/day, ip qd administered for 28 days by immunohistochemistry analysis; format: functional, organism-based; settings: time 28.0 day
MDA-MB-231 [41] = experiment: Antiproliferative activity against human MDA-MB-231 cells harboring wild type BRCA and c-Met amplification assessed as inhibition of cell growth incubated for 7 days by MTT assay; format: functional, cell-based; settings: MDA-MB-231, 168 h

T1 sequence (P09874 whole entry): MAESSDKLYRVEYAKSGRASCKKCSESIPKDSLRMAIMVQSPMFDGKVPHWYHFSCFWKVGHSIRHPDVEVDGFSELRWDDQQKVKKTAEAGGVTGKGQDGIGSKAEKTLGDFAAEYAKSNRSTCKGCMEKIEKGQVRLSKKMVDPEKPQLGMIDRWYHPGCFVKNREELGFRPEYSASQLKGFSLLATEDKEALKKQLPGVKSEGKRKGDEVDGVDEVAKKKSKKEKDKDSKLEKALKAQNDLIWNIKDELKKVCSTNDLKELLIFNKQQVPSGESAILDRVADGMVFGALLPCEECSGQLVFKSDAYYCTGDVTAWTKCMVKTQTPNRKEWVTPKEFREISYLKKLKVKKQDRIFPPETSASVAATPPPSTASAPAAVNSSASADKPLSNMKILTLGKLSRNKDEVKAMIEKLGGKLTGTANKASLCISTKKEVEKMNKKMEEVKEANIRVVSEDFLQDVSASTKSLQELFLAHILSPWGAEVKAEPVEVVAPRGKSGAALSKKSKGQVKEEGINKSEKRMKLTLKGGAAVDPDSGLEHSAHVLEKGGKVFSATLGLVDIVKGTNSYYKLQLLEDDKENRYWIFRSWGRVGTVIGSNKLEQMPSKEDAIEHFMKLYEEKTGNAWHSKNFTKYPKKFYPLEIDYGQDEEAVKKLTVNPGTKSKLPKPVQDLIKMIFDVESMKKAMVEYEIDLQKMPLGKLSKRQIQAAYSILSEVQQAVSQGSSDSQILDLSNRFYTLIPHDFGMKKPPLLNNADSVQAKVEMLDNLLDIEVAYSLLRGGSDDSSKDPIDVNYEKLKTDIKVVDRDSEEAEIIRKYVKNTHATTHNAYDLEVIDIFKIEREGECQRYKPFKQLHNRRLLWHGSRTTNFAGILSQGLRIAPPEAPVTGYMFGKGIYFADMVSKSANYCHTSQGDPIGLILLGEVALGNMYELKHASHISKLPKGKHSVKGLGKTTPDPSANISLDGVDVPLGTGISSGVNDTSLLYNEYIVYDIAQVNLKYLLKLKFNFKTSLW

Compound: O=C(c1cc(Cc2n[nH]c(=O)c3ccccc23)ccc1F)N1CCN(c2ccc3c(OCCn4nc(-c5cccnc5)ccc4=O)ccnc3c2)CC1
inhibition [4]: 98.3%
inhibition [5]: 63%
inhibition [6]: 60.3%
Activity [7]: Active
Activity [8]: Active
Activity (MDA-MB-231 [9]): inactive
Activity (MDA-MB-231 [10]): inactive
Activity (MDA-MB-231 [11]): inactive
Activity (MDA-MB-231 [12]): inactive
Activity (MDA-MB-231 [13]): Active
Activity (MDA-MB-231 [14]): Active
Activity (MDA-MB-231 [15]): Active
Activity (MDA-MB-231 [16]): Active
Activity (MDA-MB-231 [17]): Active
Activity (MDA-MB-231 [18]): Active
Activity (MDA-MB-231 [19]): Active
Activity (MDA-MB-231 [20]): Active
Activity (MDA-MB-231 [21]): Active
Activity (MDA-MB-231 [22]): Active
inhibition (MDA-MB-231 [23]): Active
Activity (MDA-MB-231 [24]): Active
Activity (MDA-MB-231 [25]): Active
Activity (MDA-MB-231 [26]): Active
Activity (MDA-MB-231 [27]): Active
Activity (MDA-MB-231 [28]): inactive
Activity (MDA-MB-231 [29]): inactive
Activity (MDA-MB-231 [30]): Active
Activity (MDA-MB-231 [31]): Active
Activity (MDA-MB-231 [32]): Active
Activity (MDA-MB-231 [33]): Active
Activity (MDA-MB-231 [34]): Active
Activity [35]: Active
Activity [36]: Active
Activity (MDA-MB-231 [37]): Active
Activity (MDA-MB-231 [38]): Active
Activity (MDA-MB-231 [39]): Active
Activity (MDA-MB-231 [40]): Active

Compound: Cn1cc(-c2ccc(=O)n(CCOc3ccnc4cc(OCCN5CCN(C(=O)c6cc(Cc7n[nH]c(=O)c8ccccc78)ccc6F)CC5)ccc34)n2)cn1
IC50 [1]: 3.7 nM
IC50 [2]: 18.2 nM
IC50 (MDA-MB-231 [41]): 1020 nM

Compound: Cn1cc(-c2ccc(=O)n(CCOc3ccnc4cc(NCCN5CCN(C(=O)c6cc(Cc7n[nH]c(=O)c8ccccc78)ccc6F)CC5)ccc34)n2)cn1
IC50 [1]: 32.2 nM
inhibition [3]: < 50%

Results, then the compound that gave them:

IC50 [1]: 7.1 nM
IC50 [2]: 51.2 nM
Compound: O=C(c1cc(Cc2n[nH]c(=O)c3ccccc23)ccc1F)N1CCN(c2ccc3c(OCCn4nc(N5CCOCC5)ccc4=O)ccnc3c2)CC1

IC50 [1]: 2.1 nM
inhibition [3]: < 50%
Compound: Cn1cc(-c2ccc(=O)n(CCOc3ccnc4cc(OC5CCN(C(=O)c6cc(Cc7n[nH]c(=O)c8ccccc78)ccc6F)CC5)ccc34)n2)cn1

IC50 [1]: 4.7 nM
IC50 [2]: 126 nM
Compound: Cn1cc(-c2ccc(=O)n(CCOc3ccnc4cc(NC5CCN(C(=O)c6cc(Cc7n[nH]c(=O)c8ccccc78)ccc6F)CC5)ccc34)n2)cn1

IC50 [1]: 5.8 nM
IC50 [2]: 42.6 nM
Compound: Cn1cc(-c2ccc(=O)n(CCOc3ccnc4cc(NC5CCN(C(=O)c6cc(Cc7n[nH]c(=O)c8ccccc78)ccc6F)C5)ccc34)n2)cn1 (configuration not stated)

IC50 [1]: > 1000 nM
inhibition [3]: < 50%
Compound: Cn1cc(-c2ccc(=O)n(CCOc3ccnc4cc(N5CCN(C(=O)c6cc(Cc7n[nH]c(=O)c8ccccc78)ccc6F)C(C)(C)C5)ccc34)n2)cn1
